Reference: patent publication US6410009B1, “Pharmaceutical composition for treating hepatitis B virus (HBV) infection” (Hadasit Medical Research Services & Development Co., Ltd., priority 1997, dated 2002)

Tests used:
HBV [1] = assay: HBV viremia in SCID>BNX chimeric mice transplanted with normal human liver fragments incubated ex-vivo with HBV-positive sera with hIL6
Procedure: A fragment of normal human liver from a patient with no indication of any HBV-related markers or disease, was incubated ex-vivo with a high titer HBV DNA-positive serum prior to transplantation under the kidney capsule of the chimeric animals. HBV DNA sequences were undetectable by PCR from two different genomic regions in any of these animals during the month following transplantation.
However, when liver tissue originating from the same patients was incubated ex-vivo with the above-mentioned HBV DNA-positive sera together with hIL6, HBV DNA sequences were detected from day 16 to day 31, in sera of about 50% of the transplanted animals.
Pre-exposure of liver tissue to hIL6 prior to incubation with HBV ex-vivo, increased infection to about 90% of the animals. […]
The 50 μl PCR reaction volume contained 10 pmole of each oligonucleotide primer in reaction buffer (10 mM Tris-HCl, pH 8.3, 50 mM KCl, 2.0 mM MgCl2, 0.01 % (w/v) gelatin, 250 μM of dATP, dGTP, dCTP, dTTP and 0.5 u of Taq polymerase. The reaction mixtures were overlaid with 30 μl of mineral oil. PCR cycles included 94° C. for 1 min., 55° C. for 1 min. and 72° C. for 3 min., 35 repeated cycles. 10 μl of reaction mixture was analyzed on a 2% agarose gel. Oligonucleotides used for the pre-core/core amplification were: […]

HBV [2] = assay: HBV-DNA by PCR in sera of chimeric mice after intrasplenic injection of HepG2-derived cell lines incubated with HBV with or without hIL6; type: in vivo, SCID>BNX chimeric mice; details: HepG2-hIL6R cells incubated with HBV in the presence of hIL6
Procedure: Following incubation, the various mixtures were injected intrasplenically to the chimeric mice to generate HCC foci in the liver, as shown in FIG. 4.
All cell lines grew in T25 flasks supplemented with DMEM medium, enriched with 10% fetal bovine serum. For infection experiments, cells were trypsinized and washed twice with PBS, followed by incubation with HBV-positive human sera ([…]) in the presence or absence of hIL6 (500 ng/ml) in 1-2 ml of DMEM. After 2-4 h incubation at 37° C., 4×10^6 cells/ml, 0.5 ml/mouse were injected intrasplenically to 8-10 SCID>BNX mice in each group. Animals were splenectomized following the injection.
Mice were bled at two weekly intervals for 3 months, and DNA was extracted from 100 μl sera. The DNA was subjected to PCR amplification. The DNA extraction and the PCR method applied are described in the legend of FIG. 3.

HBV [3] = assay: HBV infection of human hepatocellular carcinoma cell line HuH7; type: cell-based; details: hIL-6 500 ng/ml
Procedure: HBV infection protocol of human hepatocellular carcinoma cell line HuH7: Human sera were screened for the presence of HBV DNA sequences. Positive sera were analyzed quantitatively for viral particle concentration, as described by A. Klein, J. Clin. Microb., vol. 35, pp. 1897-1899 […]. Sera containing over 108 particles per ml were selected for infection experiments. The infection experiments included the following groups: Group 1—Cells were incubated with HBV without the addition of hIL-6 in the presence of polybrene 2 mg/ml, for 90 min at 37° C., in a 5% CO2 shaking incubator, in a total volume of 1.5 to 2 ml. Group 2—Cells were incubated with 1 ml of HBV positive serum, in the presence of hIL-6 (500 ng/ml) and polybrene 2 mg/ml, for 90 min at 37° C., in a 5% CO2 incubator, in a total volume of 1.5 to 2 ml. Group 3—Cells were incubated with 1 ml of HBV positive serum, in the presence of the cytokine hyper-IL-6 (HIL-6), 1.5 mg/ml, and polybrene 2 mg/ml, for 90 min at 37° C., in a 5% CO2 shaking incubator, in a total volume of 1.5 to 2 ml. The preparation of the cytokine hyper-IL-6 (HIL-6) is described in M. Fischer, et al., Nat. Biotechnol., vol. 15, pp. 142-145 (1997); T. Rakemann et al., J. Biol. Chem., vol. 274, pp. 1257-1266 (1999); P. Schirmacher et al., Am. J. Pathol., vol. 153, pp. 639-648 (1998). […]

## hIL6: human interleukin 6
HBV [1]; liver tissue incubated ex-vivo with HBV DNA-positive sera together with hIL6 (500 ng/ml), day 16 to day 31
  transplanted animals with HBV DNA sequences detected in sera: about 50%
HBV [1]; pre-exposure of liver tissue to hIL6 prior to incubation with HBV ex-vivo
  animals infected: about 90%
HBV [2]
  time after transplantation at which HBV-DNA sequences could be detected in serum: 13 days
HBV [3]
  HBV infection of HuH7 cells: enhanced
